Experimental data reported in the supplement of paper PMC10307832.

What was measured:
Experiment in all cases: relative viability (nuclei count vs DMSO), 5 days (fraction); higher = more cells survive
Carboplatin + Pemetrexed = compound: C1CC(C1)(C(=O)O)C(=O)O.[NH2-].[NH2-].[Pt+2] [Carboplatin] + Nc1nc2[nH]cc(CCc3ccc(C(=O)N[C@@H](CCC(=O)O)C(=O)O)cc3)c2c(=O)[nH]1 [Pemetrexed] (partner 0.2 µM)
Procedure, shortened: (§1)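 Lung cancer cell lines in 1536-well plates got either a single drug or a fixed anchor-drug dose together with five library-drug doses (not always all listed) in √10 steps, by pin tool, on the day after seeding. Nuclei were counted after 5 days, and relative viability is the treated-to-vehicle ratio of nuclei counts. Values are medians of duplicate plates.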

Carboplatin + Vorinostat = compound: C1CC(C1)(C(=O)O)C(=O)O.[NH2-].[NH2-].[Pt+2] [Carboplatin] + O=C(CCCCCCC(=O)Nc1ccccc1)NO [Vorinostat] (partner 1 µM)
Procedure, shortened: as §1

MLN4924 + Olaparib = compound: NS(=O)(=O)OC[C@@H]1C[C@@H](n2ccc3c(N[C@H]4CCc5ccccc54)ncnc32)C[C@@H]1O [MLN4924] + O=C(c1cc(Cc2n[nH]c(=O)c3ccccc23)ccc1F)N1CCN(C(=O)C2CC2)CC1 [Olaparib] (partner 8 µM)
Procedure, shortened: as §1

MLN4924 + Tozasertib = compound: NS(=O)(=O)OC[C@@H]1C[C@@H](n2ccc3c(N[C@H]4CCc5ccccc54)ncnc32)C[C@@H]1O [MLN4924] + Cc1cc(Nc2cc(N3CCN(C)CC3)nc(Sc3ccc(NC(=O)C4CC4)cc3)n2)n[nH]1 [Tozasertib] (partner 0.1 µM)
Procedure, shortened: as §1

Cell Line: NCI-H2347
- relative viability (Carboplatin + Pemetrexed; first compound 0.08 µM): 0.432
- relative viability (Carboplatin + Pemetrexed; first compound 0.253 µM): 0.452
- relative viability (Carboplatin + Pemetrexed; first compound 0.8 µM): 0.403
- relative viability (Carboplatin + Pemetrexed; first compound 2.53 µM): 0.407
- relative viability (Carboplatin + Pemetrexed; first compound 8 µM): 0.525
- relative viability (Carboplatin + Vorinostat; first compound 0.08 µM): 0.555
- relative viability (Carboplatin + Vorinostat; first compound 0.253 µM): 0.586
- relative viability (Carboplatin + Vorinostat; first compound 0.8 µM): 0.646
- relative viability (Carboplatin + Vorinostat; first compound 2.53 µM): 0.595
- relative viability (Carboplatin + Vorinostat; first compound 8 µM): 0.526
- relative viability (MLN4924 + Olaparib; first compound 0.04 µM): 0.666
- relative viability (MLN4924 + Olaparib; first compound 0.1265 µM): 0.605
- relative viability (MLN4924 + Olaparib; first compound 0.4 µM): 0.512
- relative viability (MLN4924 + Olaparib; first compound 1.265 µM): 0.4
- relative viability (MLN4924 + Olaparib; first compound 4 µM): 0.376
- relative viability (MLN4924 + Tozasertib; first compound 0.04 µM): 0.647
- relative viability (MLN4924 + Tozasertib; first compound 0.1265 µM): 0.546
- relative viability (MLN4924 + Tozasertib; first compound 0.4 µM): 0.386
- relative viability (MLN4924 + Tozasertib; first compound 1.265 µM): 0.283
- relative viability (MLN4924 + Tozasertib; first compound 4 µM): 0.241

Cell Line: NCI-H1395
- relative viability (Carboplatin + Pemetrexed; first compound 0.08 µM): 1.02
- relative viability (Carboplatin + Pemetrexed; first compound 0.253 µM): 0.983
- relative viability (Carboplatin + Pemetrexed; first compound 0.8 µM): 0.814
- relative viability (Carboplatin + Pemetrexed; first compound 2.53 µM): 0.61
- relative viability (Carboplatin + Pemetrexed; first compound 8 µM): 0.534
- relative viability (Carboplatin + Vorinostat; first compound 0.08 µM): 1.03
- relative viability (Carboplatin + Vorinostat; first compound 0.253 µM): 0.638
- relative viability (Carboplatin + Vorinostat; first compound 0.8 µM): 0.847
- relative viability (Carboplatin + Vorinostat; first compound 2.53 µM): 0.644
- relative viability (Carboplatin + Vorinostat; first compound 8 µM): 0.502
- relative viability (MLN4924 + Olaparib; first compound 0.04 µM): 0.415
- relative viability (MLN4924 + Olaparib; first compound 0.1265 µM): 0.426
- relative viability (MLN4924 + Olaparib; first compound 0.4 µM): 0.367
- relative viability (MLN4924 + Olaparib; first compound 1.265 µM): 0.339
- relative viability (MLN4924 + Olaparib; first compound 4 µM): 0.364
- relative viability (MLN4924 + Tozasertib; first compound 0.04 µM): 0.72
- relative viability (MLN4924 + Tozasertib; first compound 0.1265 µM): 0.609
- relative viability (MLN4924 + Tozasertib; first compound 0.4 µM): 0.475
- relative viability (MLN4924 + Tozasertib; first compound 1.265 µM): 0.397
- relative viability (MLN4924 + Tozasertib; first compound 4 µM): 0.337

Cell Line: NCI-H647
- relative viability (Carboplatin + Pemetrexed; first compound 0.08 µM): 0.176
- relative viability (Carboplatin + Pemetrexed; first compound 0.253 µM): 0.18
- relative viability (Carboplatin + Pemetrexed; first compound 0.8 µM): 0.172
- relative viability (Carboplatin + Pemetrexed; first compound 2.53 µM): 0.203
- relative viability (Carboplatin + Pemetrexed; first compound 8 µM): 0.143
- relative viability (Carboplatin + Vorinostat; first compound 0.08 µM): 0.39
- relative viability (Carboplatin + Vorinostat; first compound 0.253 µM): 0.493
- relative viability (Carboplatin + Vorinostat; first compound 0.8 µM): 0.609
- relative viability (Carboplatin + Vorinostat; first compound 2.53 µM): 0.646
- relative viability (Carboplatin + Vorinostat; first compound 8 µM): 0.175
- relative viability (MLN4924 + Olaparib; first compound 0.04 µM): 0.392
- relative viability (MLN4924 + Olaparib; first compound 0.1265 µM): 0.125
- relative viability (MLN4924 + Olaparib; first compound 0.4 µM): 0.0492
- relative viability (MLN4924 + Olaparib; first compound 1.265 µM): 0.0302
- relative viability (MLN4924 + Olaparib; first compound 4 µM): 0.0464
- relative viability (MLN4924 + Tozasertib; first compound 0.04 µM): 0.281
- relative viability (MLN4924 + Tozasertib; first compound 0.1265 µM): 0.181
- relative viability (MLN4924 + Tozasertib; first compound 0.4 µM): 0.149
- relative viability (MLN4924 + Tozasertib; first compound 1.265 µM): 0.0334
- relative viability (MLN4924 + Tozasertib; first compound 4 µM): 0.0369

Cell Line: NCI-H520
- relative viability (Carboplatin + Pemetrexed; first compound 0.08 µM): 0.701
- relative viability (Carboplatin + Pemetrexed; first compound 0.253 µM): 0.791
- relative viability (Carboplatin + Pemetrexed; first compound 0.8 µM): 0.686
- relative viability (Carboplatin + Pemetrexed; first compound 2.53 µM): 0.617
- relative viability (Carboplatin + Pemetrexed; first compound 8 µM): 0.493
- relative viability (Carboplatin + Vorinostat; first compound 0.08 µM): 0.668
- relative viability (Carboplatin + Vorinostat; first compound 0.253 µM): 0.745
- relative viability (Carboplatin + Vorinostat; first compound 0.8 µM): 0.837
- relative viability (Carboplatin + Vorinostat; first compound 2.53 µM): 0.775
- relative viability (Carboplatin + Vorinostat; first compound 8 µM): 0.395
- relative viability (MLN4924 + Olaparib; first compound 0.04 µM): 0.273
- relative viability (MLN4924 + Olaparib; first compound 0.1265 µM): 0.217
- relative viability (MLN4924 + Olaparib; first compound 0.4 µM): 0.24
- relative viability (MLN4924 + Olaparib; first compound 1.265 µM): 0.151
- relative viability (MLN4924 + Olaparib; first compound 4 µM): 0.167
- relative viability (MLN4924 + Tozasertib; first compound 0.04 µM): 0.461
- relative viability (MLN4924 + Tozasertib; first compound 0.1265 µM): 0.513
- relative viability (MLN4924 + Tozasertib; first compound 0.4 µM): 0.425
- relative viability (MLN4924 + Tozasertib; first compound 1.265 µM): 0.204
- relative viability (MLN4924 + Tozasertib; first compound 4 µM): 0.25
